Experiment [1] deals with 5-hydroxytryptamine receptor 2A (Homo sapiens, UniProt P28223). The experiment can be described thus: Affinity of Compounds for 5-HT2A Receptors.
Protocol: The affinity of the compounds of the present disclosure for the 5-HT2A receptors was determined by the method of radioligand competition experiment. In the first step, a cell membrane component containing specific 5-HT2A receptor was prepared. A 10 cm dish was used for transfection with 10 ng of the 5-HT2A receptor and 40 μL of PEI. After 48 hours, the 10 cm dish was taken out from the cell incubator and the cultured cells had expressed the 5-HT2A receptor. A vacuum pump was used to suck off the culture medium, 3 mL of lysis buffer was added to each culture dish, and the cells were placed in a 4° C. cold room for 10 minutes. After the cells were detached, the cells were transferred to a 15 mL centrifuge tube and centrifuged at 1500 rpm for 5 minutes at 4° C., and the supernatant was discarded. The cell pellet was transferred to a tissue homogenizer, and 3 mL of lysis buffer was added and fully ground until the cells were broken. Then, cell suspension was equally aliquoted into several EP tubes, centrifuged at 12000 rpm for 5 minutes at 4° C., and the supernatant was discarded. The precipitate was the cell membrane component containing the 5-HT2A receptor. […] First, a standard binding buffer was added to the cell membrane component containing the 5-HT2A receptor, and the cell membrane was disrupted and resuspended with an electric tissue homogenizer. […]
For the next experiment, the target named is D(2) dopamine receptor (Homo sapiens, UniProt P14416). Briefly: Affinity of Compounds for Dopamine D2 Receptors.
D(2) dopamine receptor, sequence (P14416 whole entry): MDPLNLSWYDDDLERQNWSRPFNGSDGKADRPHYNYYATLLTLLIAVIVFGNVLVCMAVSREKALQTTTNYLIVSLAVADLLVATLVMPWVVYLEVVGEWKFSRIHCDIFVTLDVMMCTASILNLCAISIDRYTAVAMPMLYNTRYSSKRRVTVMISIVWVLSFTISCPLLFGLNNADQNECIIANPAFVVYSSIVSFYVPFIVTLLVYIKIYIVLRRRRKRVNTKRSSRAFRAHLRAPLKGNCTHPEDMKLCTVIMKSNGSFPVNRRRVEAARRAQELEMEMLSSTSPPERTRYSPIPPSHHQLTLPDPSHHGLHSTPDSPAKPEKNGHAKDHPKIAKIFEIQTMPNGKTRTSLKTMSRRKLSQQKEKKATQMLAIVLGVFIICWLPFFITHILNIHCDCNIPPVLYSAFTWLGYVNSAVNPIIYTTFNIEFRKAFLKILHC

5-hydroxytryptamine receptor 2A, sequence (P28223 whole entry): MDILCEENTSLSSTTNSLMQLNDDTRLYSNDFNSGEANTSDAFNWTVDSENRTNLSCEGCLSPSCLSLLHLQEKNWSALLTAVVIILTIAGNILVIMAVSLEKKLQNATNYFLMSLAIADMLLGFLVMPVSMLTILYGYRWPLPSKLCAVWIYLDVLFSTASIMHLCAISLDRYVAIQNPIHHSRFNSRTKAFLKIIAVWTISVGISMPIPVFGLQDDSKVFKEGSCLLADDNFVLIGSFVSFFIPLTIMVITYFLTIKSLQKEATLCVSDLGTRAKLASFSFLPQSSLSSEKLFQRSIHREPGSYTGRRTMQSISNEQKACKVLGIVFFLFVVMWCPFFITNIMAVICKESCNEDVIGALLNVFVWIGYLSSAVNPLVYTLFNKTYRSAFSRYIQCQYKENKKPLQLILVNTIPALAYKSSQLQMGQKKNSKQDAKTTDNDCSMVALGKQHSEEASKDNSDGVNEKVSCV
Protocol for D(2) dopamine receptor: The affinity of the compounds of the present disclosure for the dopamine D2 receptors was determined by the method of radioligand competition experiment. In the first step, a cell membrane component containing specific dopamine D2 receptors was prepared. A 10 cm culture dish was used for transfection with 10 ng of the dopamine D2 receptors and 40 μL of polyethylenimine (PEI hereafter). After 48 hours, the 10 cm culture dish was taken out from the cell culture incubator and the cultured cells had expressed the dopamine D2 receptors. A vacuum pump was used to suck off the culture medium, 3 mL of lysis buffer was added to each culture dish, and the cells were placed in a 4° C. cold room for 10 minutes. After the cells were detached, the cells were transferred to a 15 mL centrifuge tube and centrifuged at 1500 rpm for 5 minutes at 4° C., and the supernatant was discarded. The cell pellet was transferred to a tissue homogenizer, and 3 mL of lysis buffer was added and fully ground until the cells were broken. Then, cell suspension was equally aliquoted into several EP tubes, centrifuged at 12000 rpm for 5 minutes at 4° C., and the supernatant was discarded. The precipitate was the cell membrane component containing the dopamine D2 receptors. […]

One may read the Ki as a measure of affinity in units of concentration, obtained from inhibition or displacement. Read a high Ki as lower affinity. `c1ccc(-c2cccc(CN3CCN4c5cccc6scc(c56)CC4C3)c2)cc1` (configuration not stated) [US20240383913, Compound I-7]: the Ki came out at 910 nM in experiment [1] and 310 nM at D(2) dopamine receptor.
